The results in this text go back to patent publication US9925189B2, “Heterocyclic receptor agonists for the treatment of diabetes and metabolic disorders” (CymaBay Therapeutics, Inc., priority 2006, dated 2018).

Each structure is given as a SMILES string.

This experiment addresses T1, IC-GPCR2 (Homo sapiens, UniProt Q8TDV5, S309L).
T1 construct: expressed in transfected cells
T1 sequence (Q8TDV5 1-335 S309L): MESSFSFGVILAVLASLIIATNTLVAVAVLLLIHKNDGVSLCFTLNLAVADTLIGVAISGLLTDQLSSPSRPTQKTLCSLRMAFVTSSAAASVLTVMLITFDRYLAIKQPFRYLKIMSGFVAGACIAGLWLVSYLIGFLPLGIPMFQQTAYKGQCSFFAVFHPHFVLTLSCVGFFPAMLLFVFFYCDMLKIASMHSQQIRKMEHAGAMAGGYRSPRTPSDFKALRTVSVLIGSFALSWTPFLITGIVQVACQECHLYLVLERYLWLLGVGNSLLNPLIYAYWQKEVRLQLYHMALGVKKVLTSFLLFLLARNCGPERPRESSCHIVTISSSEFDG
As to the kind of experiment: Stimulation of cAMP in CHO cells stably expressing IC-GPCR2 (HTRF cAMP assay). It is filed as cell-based. The settings on record: 0.5 h, 30 minutes, IC-GPCR2 stably expressing CHO cells, read-out: Activity at 10 uM (% change in FRET signal from DMSO control). The essentials: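 CHO cells stably expressing IC-GPCR2, plated at 17500 cells/well, treated next day for 30 min in Ham's F12 with compounds at 6–8 concentrations from 0.00003 to 10 μM; parental CHO cells also screened. Intracellular cAMP read by HTRF competitive immunoassay (665/620 nm ratio). Activity given as % FRET change from DMSO control.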
Background: Time-resolved FRET reads energy transfer from a long-lived donor to a nearby acceptor.

`c1cc(-n2cnnn2)ccc1OCc1csc(C2CCN(c3nc(C4CC4)no3)CC2)n1` [Example 97, 1-(3-Cyclopropyl-[1,2,4]oxadiazol-5-yl)-4-[4-(4-tetrazol-1-yl-phenoxymethyl)-thiazol-2-yl]-piperidine]: the activation at 10 µM was 52%. As for `FC(F)(F)c1noc(N2CCC(c3nc(COc4ccc(-n5cnnn5)cc4)cs3)CC2)n1` [Example 98, 4-[4-(4-Tetrazol-1-yl-phenoxymethyl)-thiazol-2-yl]-1-(3-trifluoromethyl-[1,2,4]oxadiazol-5-yl)-piperidine], the figure is 78%. Under `NC(=O)N1CCC(c2nc(COc3ccc(-n4cnnn4)cc3)cs2)CC1` [Example 99, 4-[4-(4-Tetrazol-1-yl-phenoxymethyl)-thiazol-2-yl]-piperidine-1-carboxylic acid amide] stands 67%; under `CC(C)(C)OC(=O)N1CC(c2nc(COc3ccc(-n4cnnn4)cc3)cs2)C1` [Example 101, 3-[4-(4-tetrazol-1-yl-phenoxymethyl)-thiazol-2-yl]-azetidine-1-carboxylic acid tert-butyl ester], 44%; under `CC(C)(C)OC(=O)N1CCC(c2nc(COc3ccc(-n4cnnn4)cc3)cs2)C1` (stereo not shown) [Example 102, 3-[4-(4-Tetrazol-1-yl-phenoxymethyl)-thiazol-2-yl]-pyrrolidine-1-carboxylic acid tert-butyl ester], 49%. For the compound `CCc1cnc(N2CCC(c3nc(COc4ccc(-n5cnnn5)cc4)cs3)C2)nc1` (stereo not shown) [Example 103, 5-Ethyl-2-{3-[4-(4-tetrazol-1-yl-phenoxymethyl)-thiazol-2-yl]-pyrrolidin-1-yl}-pyrimidine], the activation at 10 µM amounted to 79%. As for `CC(C)(C)OC(=O)N1CCCC(c2nc(COc3ccc(-n4cnnn4)cc3)cs2)C1` (stereo not shown) [Example 104, 3-[4-(4-Tetrazol-1-yl-phenoxymethyl)-thiazol-2-yl]-piperidine-1-carboxylic acid tert-butyl ester], the figure is 76%; as for `CCc1cnc(N2CCCC(c3nc(COc4ccc(-n5cnnn5)cc4)cs3)C2)nc1` (stereo not shown) [Example 105, 5-Ethyl-2-{3-[4-(4-tetrazol-1-yl-phenoxymethyl)-thiazol-2-yl]-piperidin-1-yl}-pyrimidine], 52%; as for `CC(C)(C)OC(=O)N1CCC(c2nc(COCc3ccc(S(C)(=O)=O)cc3)cs2)CC1` [Example 106, 4-[4-(4-Methanesulfonyl-benzyloxymethyl)-thiazol-2-yl]-piperidine-1-carboxylic acid tert-butyl ester], 71%. For the compound `Nc1cnc(N2CCC(c3nc(COc4ccc(-n5cnnn5)cc4)cs3)CC2)nc1` [Example 107, 2-{4-[4-(4-Tetrazol-1-yl-phenoxymethyl)-thiazol-2-yl]-piperidin-1-yl}-pyrimidin-5-ylamine], the activation at 10 µM stood at 53%. As for `CC(C)(C)OC(=O)N1CCC(c2nc(C(=O)Nc3ccc(-n4cnnn4)cc3)cs2)CC1` [Example 109, 4-[4-(4-Tetrazol-1-yl-phenylcarbamoyl)-thiazol-2-yl]-piperidine-1-carboxylic acid tert-butyl ester], the figure is 38%; as for `CC(C)(C)OC(=O)N1CCC(c2nc(COc3ccc(S(=O)(=O)C(F)(F)F)cc3)cs2)CC1` [Example 110, 4-[4-(4-Trifluoromethanesulfonyl-phenoxymethyl)-thiazol-2-yl]-piperidine-1-carboxylic acid tert-butyl ester], 51%; as for `CC(C)(C)OC(=O)N1CCC(c2nc(COc3ccc([S+]([O-])C(F)(F)F)cc3)cs2)CC1` (stereo not shown) [Example 111, 4-[4-(4-Trifluoromethanesulfinyl-phenoxymethyl)-thiazol-2-yl]-piperidine-1-carboxylic acid tert-butyl ester], 68%. `CC(C)(C)OC(=O)N1CCC(c2nc(COc3c(F)cc(-n4cnnn4)cc3F)cs2)CC1` [Example 112, 4-[4-(2,6-Difluoro-4-tetrazol-1-yl-phenoxymethyl)-thiazol-2-yl]-piperidine-1-carboxylic acid tert-butyl ester]: the activation at 10 µM stood at 57%. For the compound `CC(C)(C)OC(=O)N1CCC(c2nc(COc3ccc(-n4cccc4)cc3)cs2)CC1` [Example 113, 4-[4-(4-Pyrrol-1-yl-phenoxymethyl)-thiazol-2-yl]-piperidine-1-carboxylic acid tert-butyl ester], the activation at 10 µM came to 60%.

Consider `CC(C)(C)OC(=O)N1CCC(c2nc(CNc3ccc(-n4cnnn4)cc3)cs2)CC1` [Example 114, 4-{4-[(4-Tetrazol-1-yl-phenylamino)-methyl]-thiazol-2-yl}-piperidine-1-carboxylic acid tert-butyl ester], for which the activation at 10 µM was determined as 68%. As for `CCc1cnc(N2CCC(c3nc(COc4ccc(-n5cnnn5)c(Cl)c4)cs3)CC2)nc1` [Example 115, 2-{4-[4-(3-Chloro-4-tetrazol-1-yl-phenoxymethyl)-thiazol-2-yl]-piperidin-1-yl}-5-ethyl-pyrimidine], the figure is 67%; as for `CCc1cnc(N2CCC(c3nc(COc4ccc(NC=O)cc4)cs3)CC2)nc1` [Example 116, N-(4-{2-[1-(5-Ethyl-pyrimidin-2-yl)-piperidin-4-yl]-thiazol-4-ylmethoxy}-phenyl)-formamide], 74%; as for `CCc1cnc(N2CCC(c3nc(COc4ccc(NS(C)(=O)=O)cc4)cs3)CC2)nc1` [Example 117, N-(4-{2-[1-(5-Ethyl-pyrimidin-2-yl)-piperidin-4-yl]-thiazol-4-ylmethoxy}-phenyl)-methanesulfonamide], 65%. As for `Cc1cc(-n2cnnn2)ccc1OCc1csc(C2CCN(C(=O)OC(C)(C)C)CC2)n1` [Example 118, 4-[4-(2-Methyl-4-tetrazol-1-yl-phenoxymethyl)-thiazol-2-yl]-piperidine-1-carboxylic acid tert-butyl ester], the figure is 64%; as for `CCc1cnc(N2CCC(c3nc(COc4ccc(-n5cnnn5)cc4C(F)(F)F)cs3)CC2)nc1` [Example 119, 5-Ethyl-2-{4-[4-(4-tetrazol-1-yl-2-trifluoromethyl-phenoxymethyl)-thiazol-2-yl]-piperidin-1-yl}-pyrimidine], 53%; as for `CCc1cnc(N2CCC(c3nc(COc4ccc(-n5cnnn5)cc4Cl)cs3)CC2)nc1` [Example 120, 2-{4-[4-(2-Chloro-4-tetrazol-1-yl-phenoxymethyl)-thiazol-2-yl]-piperidin-1-yl}-5-ethyl-pyrimidine], 73%.

With `CC(C)(C)OC(=O)N1CCC(c2nc(COc3ccc(-n4cnnn4)cc3)co2)CC1` [Example 121, 4-[4-(4-Tetrazol-1-yl-phenoxymethyl)-oxazol-2-yl]-piperidine-1-carboxylic acid tert-butyl ester], the activation at 10 µM came out at 75%.

With `CC(C)(C)OC(=O)N1CCC(c2nc(COc3ccc(-n4cnnn4)cc3F)co2)CC1` [Example 122, 4-[4-(2-Fluoro-4-tetrazol-1-yl-phenoxymethyl)-oxazol-2-yl]-piperidine-1-carboxylic acid tert-butyl ester], the activation at 10 µM turned out to be 76%. Under `CCc1cnc(N2CCC(c3nc(COc4ccc(S(C)(=O)=O)cc4)co3)CC2)nc1` [Example 123, 5-Ethyl-2-{4-[4-(4-methanesulfonyl-phenoxymethyl)-oxazol-2-yl]-piperidin-1-yl}-pyrimidine] stands 72%.
